According to BindingDB's records for doi:10.1016/S0960-894X(97)00091-7 (1997):
Where a SMILES comes first, the peptide text is derived from it. The star is where a group is joined. Cbz = O=C(OCc1ccccc1)*

How the values were obtained:
[1] = target: Chymotrypsinogen A (Bos taurus) (UniProt P00766); experiment: The compound was tested for the inhibition of alpha-Chymotrypsin, activity expressed as IC50
[2] = target: Chymotrypsinogen A (Bos taurus) (UniProt P00766); experiment: as above; remark: listed apart in the source

## C[C@H](NC(=O)OCc1ccccc1)C(=O)N[C@@H](C)C(=O)N[C@H](C=O)Cc1ccccc1 [{1-[1-(1-Benzyl-2-oxo-ethylcarbamoyl)-ethylcarbamoyl]-ethyl}-carbamic acid benzyl ester] (Cbz-Ala-Ala-Phe-aldehyde)
[1]
  Ki: 2200 nM
[2]
  IC50: 950 nM
